Test results taken from ChEMBL document CHEMBL5625235, “Discovery of X10g as a selective PROTAC degrader of Hsp90α protein for treating breast cancer” (Eur J Med Chem, 2023).
The source made the active and inactive calls. The rule behind the calls is not given here.

Columns and labels:
MDA-MB-231 = experiment: Antiproliferative activity against human MDA-MB-231 cells assessed as inhibition of cell proliferation incubated for 72 hrs by MTT assay; assay type: functional, cell-based; details: MDA-MB-231, 72 h
MDA-MB-468 = experiment: Antiproliferative activity against human MDA-MB-468 cells assessed as inhibition of cell proliferation incubated for 72 hrs by MTT assay; assay type: functional, cell-based; details: MDA-MB-468, 72 h
MCF7 = experiment: Antiproliferative activity against human MCF7 cells assessed as inhibition of cell proliferation incubated for 72 hrs by MTT assay; assay type: functional, cell-based; details: MCF7, 72 h
MX1 = experiment: Antiproliferative activity against human MX1 cells assessed as inhibition of cell proliferation incubated for 72 hrs by MTT assay; assay type: functional, cell-based; details: MX1, 72 h
[1] = biological target: T1, Protein cereblon/Heat shock protein HSP 90-alpha (Homo sapiens, UniProt P07900+Q96SW2); experiment: PROTAC activity at CRBN/HSP90alpha in human MCF7 cells assessed as induction of HSP90alpha degradation at 0.5 uM incubated for 8 hrs by Western blot analysis; assay type: cell-based
[2] = biological target: T2, Protein cereblon/Heat shock protein HSP 90-beta (Homo sapiens) (UniProt P08238+Q96SW2); experiment: PROTAC activity at CRBN/HSP90beta in human MCF7 cells assessed as induction of HSP90beta degradation at 0.5 uM incubated for 8 hrs by Western blot analysis; assay type: cell-based
[3] = biological target: T3, Heat shock protein HSP 90-alpha (Homo sapiens, UniProt P07900); experiment: Inhibition of 6His-tagged human HSP90alpha N-terminal domain (1 to 223 residues) expressed in Escherichia coli BL21 DE3 cells incubated for 24 hrs by fluorescence polarization assay
[4] = biological target: Heat shock protein HSP 90-beta (Homo sapiens, UniProt P08238); experiment: Inhibition of HSP90beta (unknown origin) incubated for 24 hrs by fluorescence polarization assay
[5] = biological target: T3, Heat shock protein HSP 90-alpha; experiment: Induction of HSP90alpha degradation in human MCF7 cells at 0.5 uM incubated for 8 hrs by Western blot analysis; assay type: cell-based
[6] = biological target: T1, Protein cereblon/Heat shock protein HSP 90-alpha; experiment: PROTAC activity at CRBN/HSP90alpha in human MCF7 cells assessed as induction of HSP90alpha degradation incubated for 8 hrs by Western blot analysis; assay type: cell-based
[7] = biological target: T1, Protein cereblon/Heat shock protein HSP 90-alpha; experiment: PROTAC activity at CRBN/HSP90alpha in human MCF7 cells assessed as induction of HSP90alpha degradation by measuring maximal efficacy at 0.1 to 5 uM incubated for 8 hrs by Western blot analysis relative to control; assay type: cell-based; details: dose 0.1-5 µM
[8] = biological target: T1, Protein cereblon/Heat shock protein HSP 90-alpha; experiment: PROTAC activity at CRBN/HSP90alpha in human MCF7 cells assessed as induction of HSP90alpha degradation by measuring maximal efficacy at high concentration incubated for 8 hrs by Western blot analysis; assay type: cell-based
[9] = biological target: T1, Protein cereblon/Heat shock protein HSP 90-alpha; experiment: PROTAC activity at CRBN/HSP90alpha in human MCF7 cells assessed as induction of survivin degradation at 0.5 uM incubated for 8 hrs by Western blot analysis; assay type: cell-based
[10] = biological target: T2, Protein cereblon/Heat shock protein HSP 90-beta (Homo sapiens); experiment: PROTAC activity at CRBN/HSP90beta in human MCF7 cells assessed as induction of CDK4 degradation at 0.5 uM incubated for 8 hrs by Western blot analysis; assay type: cell-based
[11] = biological target: T1, Protein cereblon/Heat shock protein HSP 90-alpha; experiment: Binding affinity to CRBN/HSP90alpha (unknown origin) assessed as ternary complex formation; assay type: protein assay
[12] = biological target: T1, Protein cereblon/Heat shock protein HSP 90-alpha; experiment: PROTAC activity at CRBN/HSP90alpha in human MCF7 cells assessed as induction of HSP90alpha degradation at 0.5 uM incubated for 8 hrs in presence of AT13387 by Western blot analysis; assay type: cell-based
[13] = biological target: T1, Protein cereblon/Heat shock protein HSP 90-alpha; experiment: PROTAC activity at CRBN/HSP90alpha in human MCF7 cells assessed as induction of HSP90alpha degradation at 0.5 uM incubated for 8 hrs in presence of pomalidomide by Western blot analysis; assay type: cell-based
[14] = biological target: T1, Protein cereblon/Heat shock protein HSP 90-alpha; experiment: PROTAC activity at CRBN/HSP90alpha in human MCF7 cells assessed as induction of HSP90alpha degradation at 0.5 uM incubated for 8 hrs in presence of MG132 by Western blot analysis; assay type: cell-based
[15] = biological target: T1, Protein cereblon/Heat shock protein HSP 90-alpha; experiment: PROTAC activity at CRBN/HSP90alpha in human MCF7 cells assessed as induction of HSP90alpha degradation at 0.5 uM incubated for 8 hrs in presence of MLN4924 by Western blot analysis; assay type: cell-based
[16] = Tmax in rat at 15 mg/kg, ip administered as single dose and measured at 5 to 480 mins by LC-MS analysis; assay type: ADME, organism-based; details: in vivo, time 5-480 min
[17] = Cmax in rat at 15 mg/kg, ip administered as single dose and measured at 5 to 480 mins by LC-MS analysis; assay type: ADME, organism-based; details: in vivo, time 5-480 min
[18] = AUCall in rat at 15 mg/kg, ip administered as single dose and measured at 5 to 480 mins by LC-MS analysis; assay type: ADME, organism-based; details: in vivo, time 5-480 min
[19] = AUC(0 to infinity) in rat at 15 mg/kg, ip administered as single dose and measured at 5 to 480 mins by LC-MS analysis; assay type: ADME, organism-based; details: in vivo, time 5-480 min
[20] = Half-life in rat at 15 mg/kg, ip administered as single dose and measured at 5 to 480 mins by LC-MS analysis; assay type: ADME, organism-based; details: in vivo, time 5-480 min
4T1 [21] = experiment: Antitumor activity against mouse 4T1 cells implanted in BALB/c mouse assessed as tumor growth inhibition at 60 mg/kg, ip administered daily for 20 days relative to control; assay type: functional; details: 4T1, 480 h, time 20 day, read-out: TGI
4T1 [22] = experiment: Antitumor activity against mouse 4T1 cells implanted in BALB/c mouse assessed as reduction in tumor weight at 60 mg/kg, ip administered daily for 20 days; assay type: functional, organism-based; details: time 20.0 day
[23] = Toxicity in BALB/c mouse implanted with mouse 4T1 cells assessed as effect on body weight at 60 mg/kg, ip administered daily for 20 days; assay type: organism-based; details: in vivo, 480 h, time 20 day
[24] = Toxicity in BALB/c mouse implanted with mouse 4T1 cells assessed as mortality at 60 mg/kg, ip administered daily for 20 days; assay type: organism-based; details: in vivo, 480 h, time 20 day

Sequence of Heat shock protein HSP 90-beta (P08238 whole entry): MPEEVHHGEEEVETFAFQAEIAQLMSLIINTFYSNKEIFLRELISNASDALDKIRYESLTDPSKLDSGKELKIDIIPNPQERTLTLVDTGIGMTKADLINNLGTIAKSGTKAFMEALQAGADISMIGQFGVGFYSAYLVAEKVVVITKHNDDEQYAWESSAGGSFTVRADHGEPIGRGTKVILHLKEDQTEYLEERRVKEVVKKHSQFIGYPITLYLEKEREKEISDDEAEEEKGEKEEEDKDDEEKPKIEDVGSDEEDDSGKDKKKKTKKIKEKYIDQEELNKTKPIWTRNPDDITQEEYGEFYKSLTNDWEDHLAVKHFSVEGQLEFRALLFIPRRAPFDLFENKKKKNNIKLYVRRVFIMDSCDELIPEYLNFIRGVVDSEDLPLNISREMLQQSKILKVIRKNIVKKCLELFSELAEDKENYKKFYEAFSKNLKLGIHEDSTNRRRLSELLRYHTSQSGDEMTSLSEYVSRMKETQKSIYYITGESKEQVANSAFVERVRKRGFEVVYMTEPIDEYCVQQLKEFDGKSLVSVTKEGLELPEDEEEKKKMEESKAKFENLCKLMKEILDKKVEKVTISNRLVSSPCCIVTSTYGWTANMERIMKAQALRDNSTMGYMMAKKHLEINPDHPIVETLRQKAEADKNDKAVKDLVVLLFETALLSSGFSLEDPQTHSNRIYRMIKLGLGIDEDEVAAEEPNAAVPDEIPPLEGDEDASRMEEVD

IC50 (MDA-MB-231) [µM]	IC50 (MDA-MB-468) [µM]	IC50 (MCF7) [µM]	Activity [1]	Activity [2]	SMILES	IC50 (MX1) [µM]	also measured
7.87	25.8	3.42	inactive	inactive	CC(C)c1cc(C(=O)N2Cc3ccc(CN4CCN(C(=O)CCCNc5cccc6c5CN(C5CCC(=O)NC5=O)C6=O)CC4)cc3C2)c(O)cc1O (centres undefined)	1.19	–
72.8	41.6	7.5	–	–	CC(C)c1cc(C(=O)N2Cc3ccc(CN4CCN(CCCC(=O)Nc5cccc6c5C(=O)N(C5CCC(=O)NC5=O)C6=O)CC4)cc3C2)ccc1O (centres undefined)	40.8	–
> 100	> 100	27.1	–	–	CC(C)c1cc(C(=O)N2Cc3ccc(CN4CCN(CCC(=O)Nc5cccc6c5C(=O)N(C5CCC(=O)NC5=O)C6=O)CC4)cc3C2)ccc1O (centres undefined)	> 100	–
2.04	3.03	0.02	inactive	inactive	CC(C)c1cc(C(=O)N2Cc3ccc(CN4CCN(CCCC(=O)Nc5cccc6c5C(=O)N(C5CCC(=O)NC5=O)C6=O)CC4)cc3C2)c(O)cc1O (centres undefined)	0.22	–
–	–	–	–	–	CC(C)c1ccc(O)c(C(=O)N2Cc3ccccc3C2)c1	–	IC50 [3]: 3.21 µM; IC50 [4]: 1.6 µM
7.69	5.1	2.03	inactive	inactive	CC(C)c1cc(C(=O)N2Cc3ccc(CN4CCN(C(=O)CNc5cccc6c5CN(C5CCC(=O)NC5=O)C6=O)CC4)cc3C2)c(O)cc1O (centres undefined)	3.46	–
4.3	13.2	1.3	inactive	inactive	CC(C)c1cc(C(=O)N2Cc3ccc(CN4CCN(C(=O)CCCCNc5cccc6c5CN(C5CCC(=O)NC5=O)C6=O)CC4)cc3C2)c(O)cc1O (centres undefined)	2.02	–
71.8	30.1	30.5	–	–	CC(C)c1cc(C(=O)N2Cc3ccc(CN4CCN(CCCCCC(=O)Nc5cccc6c5C(=O)N(C5CCC(=O)NC5=O)C6=O)CC4)cc3C2)ccc1O (centres undefined)	34.6	–
> 100	> 100	> 100	–	–	Nc1cccc2c1C(=O)N(C1CCC(=O)NC1=O)C2=O (centres undefined) [POMALIDOMIDE]	> 100	Activity [5]: inactive
12.1	3.67	0.92	inactive	inactive	CC(C)c1cc(C(=O)N2Cc3ccc(CN4CCN(CCCCCCC(=O)Nc5cccc6c5C(=O)N(C5CCC(=O)NC5=O)C6=O)CC4)cc3C2)c(O)cc1O (centres undefined)	0.31	–

SMILES	IC50 (MDA-MB-231) [µM]	IC50 (MDA-MB-468) [µM]	IC50 (MCF7) [µM]	Activity [1]	Activity [2]	IC50 (MX1) [µM]	also measured
CC(C)c1cc(C(=O)N2Cc3ccc(CN4CCN(CCCCCCC(=O)Nc5cccc6c5C(=O)N(C5CCC(=O)NC5=O)C6=O)CC4)cc3C2)ccc1O (centres undefined)	51.5	16.5	8.93	Active	inactive	12	DC50 [6]: 0.295 µM; Emax [7]: 66.4%; Activity [8]: inactive; Activity [9]: Active; Activity [10]: inactive; Activity [11]: Active; Activity [12]: inactive; Activity [13]: inactive; Activity [14]: inactive; Activity [15]: inactive; Tmax [16]: 0.6 h; Cmax [17]: 302 ng/mL; AUC [18]: 703 ng·h/mL; AUC(0-inf) [19]: 758 ng·h/mL; half-life [20]: 2.5 h; inhibition in vivo at 60 mg/kg (4T1 [21]): 54%; Activity (4T1 [22]): Active; Activity [23]: Non-Toxic; Activity [24]: Non-Toxic
